# ChEMBL document CHEMBL2321708, “Modulators of the GPR119 Receptor for the Treatment of Metabolic Syndrome” (ACS Med Chem Lett, 2013)
# pEC50: −log10 of the molar value.
# Legend:
# Type in all cases: functional
# [1] = biological target: T1, Glucose-dependent insulinotropic receptor (Homo sapiens, UniProt Q8TDV5); test: Agonist activity at human GPR119 by HTRF cAMP assay
# T1 sequence (Q8TDV5 whole entry): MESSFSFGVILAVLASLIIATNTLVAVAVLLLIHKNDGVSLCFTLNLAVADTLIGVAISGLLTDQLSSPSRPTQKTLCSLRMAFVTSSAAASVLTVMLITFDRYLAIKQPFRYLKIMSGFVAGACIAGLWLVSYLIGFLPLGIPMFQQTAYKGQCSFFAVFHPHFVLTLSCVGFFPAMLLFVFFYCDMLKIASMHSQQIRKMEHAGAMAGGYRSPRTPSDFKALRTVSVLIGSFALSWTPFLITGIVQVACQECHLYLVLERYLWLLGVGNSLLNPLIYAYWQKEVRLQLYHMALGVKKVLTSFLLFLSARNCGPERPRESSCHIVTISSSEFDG
# unidentified [2] = test: Effect on glucose homeostasis in diabetes model (unknown origin) assessed as release of GIP at 30 mg/kg, po administered intratracheally measured 120 mins post glucose challenge
# unidentified [3] = test: Effect on glucose homeostasis in diabetes model (unknown origin) assessed as release of GIP at 30 mg/kg, […] measured 60 mins post glucose challenge
# unidentified [4] = test: Effect on glucose homeostasis in diabetes model (unknown origin) assessed as release of GIP at 30 mg/kg, […] measured 40 mins post glucose challenge
# unidentified [5] = test: Effect on glucose homeostasis in diabetes model (unknown origin) assessed as release of GIP at 30 mg/kg, […] measured 20 mins post glucose challenge
# unidentified [6] = test: Effect on glucose homeostasis in diabetes model (unknown origin) assessed as release of GIP at 30 mg/kg, po administered intratracheally measured 30 mins before glucose challenge
# [7] = Effect on glucose homeostasis in diabetes model (unknown origin) assessed as release of GIP at 3 mg/kg, […] measured 120 mins post glucose challenge
# [8] = Effect on glucose homeostasis in diabetes model (unknown origin) assessed as release of GIP at 3 mg/kg, […] measured 60 mins post glucose challenge
# [9] = Effect on glucose homeostasis in diabetes model (unknown origin) assessed as release of GIP at 3 mg/kg, […] measured 40 mins post glucose challenge
# [10] = Effect on glucose homeostasis in diabetes model (unknown origin) assessed as release of GIP at 3 mg/kg, […] measured 20 mins post glucose challenge
# [11] = Effect on glucose homeostasis in diabetes model (unknown origin) assessed as release of GIP at 3 mg/kg, […] measured 30 mins before glucose challenge
smiles,measurement,setting,value
CC(C)(C)OC(=O)N1CCC(CO[C@H]2CC[C@H](c3cnc(S(C)(=O)=O)cn3)CC2)CC1,pEC50,[1],6.15
CC(C)c1noc(N2CCC(CO[C@H]3CC[C@H](c4ccc(S(C)(=O)=O)cc4F)CC3)CC2)n1,pEC50,[1],7.42
CC(C)(F)c1noc(N2CCC(COC3CC=C(c4ccc(S(C)(=O)=O)cc4)CC3)CC2)n1 (stereo not drawn),pEC50,[1],7.82
CCc1cnc(N2CCC(CO[C@H]3CC[C@H](c4ccc(S(C)(=O)=O)cc4F)CC3)CC2)nc1,Activity,unidentified [2],107.5%
same,Activity,unidentified [3],193.2%
same,Activity,unidentified [4],204.2%
same,Activity,unidentified [5],163.5%
same,Activity,unidentified [6],72.2%
same,Activity,[7],163.3%
same,Activity,[8],262.8%
same,Activity,[9],250.2%
same,Activity,[10],201.3%
same,Activity,[11],88.7%
